From ChEMBL document CHEMBL1201862, “PubChem BioAssay data set” (2004)
Activity calls are given as the source filed them. For most assays here, no stated cut-off is given here; in the data, actives have a measured EC50 and inactives only a lower limit.

Tests used:
[1] = target: T1, Heat shock factor protein 1 (Mus musculus, UniProt P38532); experiment: HSF1 potentiators in luciferase reporter cells, confirmation, cell-based, NIH3T3, luminescence, dose retest (AID 435004); type: functional;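 further: stress induced by proteasome inhibitor MG132 added 30 min after compound; luciferase reporter driven by HSF1 response element in NIH3T3 cells; actives raise luminescence as potentiators of the MG132 stress response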
T1 sequence (P38532 whole entry): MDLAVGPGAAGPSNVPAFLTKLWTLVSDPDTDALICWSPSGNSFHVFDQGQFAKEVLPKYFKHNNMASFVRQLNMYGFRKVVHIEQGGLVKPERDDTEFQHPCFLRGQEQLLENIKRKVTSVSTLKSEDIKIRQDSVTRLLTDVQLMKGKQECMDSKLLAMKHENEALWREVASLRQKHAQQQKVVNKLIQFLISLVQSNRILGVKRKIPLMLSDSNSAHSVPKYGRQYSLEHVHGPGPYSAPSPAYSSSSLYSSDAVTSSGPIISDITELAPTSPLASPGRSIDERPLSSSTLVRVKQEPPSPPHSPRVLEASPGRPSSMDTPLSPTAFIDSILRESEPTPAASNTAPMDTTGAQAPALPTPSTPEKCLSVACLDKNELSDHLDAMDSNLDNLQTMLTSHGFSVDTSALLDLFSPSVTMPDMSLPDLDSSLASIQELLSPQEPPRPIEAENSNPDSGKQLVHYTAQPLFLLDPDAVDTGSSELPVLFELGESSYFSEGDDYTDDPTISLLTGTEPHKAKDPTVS

[2] = Luminescence Cell-Based Dose Retest to Confirm Inhibitors of Cancer Stem Cells. [Related pubchem assays (depositor defined):AID2717, AID2721]; type: functional; settings: Homo sapiens
[3] = inhibitors of intracellular T. cruzi replication, confirmation, NIH3T3 host cells, beta-gal luminescence (AID 2044); type: functional, cell-based;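 further: intracellular parasites grown in NIH/3T3 mouse fibroblasts as host cells; luminescent beta-galactosidase reporter signal from transgenic T. cruzi replicating inside host cells; inhibitors lower the luminescence signal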
[4] = cytotoxicity toward NIH3T3 fibroblasts, dose response, counter-screen, cell-based, ATP luminescence, mouse fibroblasts (AID 2010); type: functional;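 further: cells exposed to compound for about 90 hours before reading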
[5] = target: T2, Cytochrome P450 1A2 (Homo sapiens, UniProt P05177);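 further: PubChem cytochrome P450 panel assay, CYP1A2 panel member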
T2 sequence (P05177 whole entry): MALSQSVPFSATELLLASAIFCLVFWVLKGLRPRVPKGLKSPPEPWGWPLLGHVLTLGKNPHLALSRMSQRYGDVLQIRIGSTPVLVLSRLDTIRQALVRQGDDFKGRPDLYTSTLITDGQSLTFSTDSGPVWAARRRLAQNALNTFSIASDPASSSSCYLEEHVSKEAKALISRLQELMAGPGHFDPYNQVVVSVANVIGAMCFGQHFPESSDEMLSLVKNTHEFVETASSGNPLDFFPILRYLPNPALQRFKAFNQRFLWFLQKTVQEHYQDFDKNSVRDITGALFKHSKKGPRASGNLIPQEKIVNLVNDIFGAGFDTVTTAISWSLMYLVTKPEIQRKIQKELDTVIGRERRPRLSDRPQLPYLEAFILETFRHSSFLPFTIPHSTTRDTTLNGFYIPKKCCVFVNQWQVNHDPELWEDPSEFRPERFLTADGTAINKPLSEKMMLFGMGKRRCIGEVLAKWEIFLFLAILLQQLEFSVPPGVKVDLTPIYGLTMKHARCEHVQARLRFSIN

[6] = target: T3, Replicative DNA helicase DnaB (Mycobacterium tuberculosis, UniProt P9WMR3); experiment: DnaB intein splicing inhibitors, dose response, biochemical, cell-free fluorescence (AID 449749); type: functional
T3 sequence (P9WMR3 whole entry): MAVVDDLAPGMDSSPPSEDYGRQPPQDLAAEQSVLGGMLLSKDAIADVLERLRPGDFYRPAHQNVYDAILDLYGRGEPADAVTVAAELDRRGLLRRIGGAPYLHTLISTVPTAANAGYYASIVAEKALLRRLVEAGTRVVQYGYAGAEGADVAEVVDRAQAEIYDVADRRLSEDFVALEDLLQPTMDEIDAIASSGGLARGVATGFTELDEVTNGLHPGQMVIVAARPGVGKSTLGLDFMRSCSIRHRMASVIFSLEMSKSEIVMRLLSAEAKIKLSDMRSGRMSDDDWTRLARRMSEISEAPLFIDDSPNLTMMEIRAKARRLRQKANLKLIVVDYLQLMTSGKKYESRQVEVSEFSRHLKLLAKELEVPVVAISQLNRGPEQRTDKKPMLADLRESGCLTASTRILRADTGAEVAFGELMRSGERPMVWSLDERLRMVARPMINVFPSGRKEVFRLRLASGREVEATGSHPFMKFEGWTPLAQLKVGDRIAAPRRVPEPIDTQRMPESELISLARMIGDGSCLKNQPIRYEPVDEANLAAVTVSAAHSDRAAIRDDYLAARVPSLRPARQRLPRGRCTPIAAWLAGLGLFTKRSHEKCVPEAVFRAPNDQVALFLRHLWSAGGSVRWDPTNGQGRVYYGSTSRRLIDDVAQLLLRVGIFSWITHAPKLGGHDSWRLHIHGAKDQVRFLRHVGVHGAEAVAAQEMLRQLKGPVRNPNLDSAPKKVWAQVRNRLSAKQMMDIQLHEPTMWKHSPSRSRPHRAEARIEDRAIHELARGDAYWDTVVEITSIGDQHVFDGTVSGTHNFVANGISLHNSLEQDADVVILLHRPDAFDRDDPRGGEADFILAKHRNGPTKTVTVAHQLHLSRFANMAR

[7] = target: T4, Protein RecA (Mycobacterium tuberculosis, UniProt P9WHJ3); experiment: Fluorescence Cell-Free Homogeneous Dose Retest to Identify Inhibitors of RecA-Intein Splicing Activity. [Related pubchem assays (depositor defined):AID2097, AID2223, AID489010, AID492950]; type: functional
T4 sequence (P9WHJ3 whole entry): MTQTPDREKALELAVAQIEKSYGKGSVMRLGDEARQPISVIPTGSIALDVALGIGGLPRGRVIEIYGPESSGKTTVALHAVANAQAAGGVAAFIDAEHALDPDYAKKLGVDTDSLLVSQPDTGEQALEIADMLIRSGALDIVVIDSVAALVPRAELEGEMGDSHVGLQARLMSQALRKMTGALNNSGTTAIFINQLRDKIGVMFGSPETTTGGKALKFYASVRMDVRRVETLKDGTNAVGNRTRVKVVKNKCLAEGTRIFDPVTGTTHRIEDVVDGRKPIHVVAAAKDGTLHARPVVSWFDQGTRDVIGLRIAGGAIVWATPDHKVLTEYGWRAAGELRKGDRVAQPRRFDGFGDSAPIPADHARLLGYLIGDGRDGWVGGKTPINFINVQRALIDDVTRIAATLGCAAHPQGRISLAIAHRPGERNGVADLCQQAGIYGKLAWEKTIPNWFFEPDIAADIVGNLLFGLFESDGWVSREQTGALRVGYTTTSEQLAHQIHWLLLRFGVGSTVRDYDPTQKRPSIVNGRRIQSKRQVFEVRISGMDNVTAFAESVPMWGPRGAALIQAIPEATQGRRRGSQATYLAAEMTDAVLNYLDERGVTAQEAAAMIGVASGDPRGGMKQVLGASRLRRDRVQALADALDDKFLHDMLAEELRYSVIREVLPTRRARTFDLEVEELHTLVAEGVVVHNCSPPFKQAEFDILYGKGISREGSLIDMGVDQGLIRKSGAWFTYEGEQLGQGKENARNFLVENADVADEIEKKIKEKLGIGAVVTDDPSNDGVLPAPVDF

[8] = HEp-2 cell cytotoxicity, dose response, cytotoxicity control for RSV inhibitor project, HTS (AID 2410); type: functional; settings: human respiratory syncytial virus
[9] = target: Cytochrome P450 3A4 (Homo sapiens, UniProt P08684);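 further: CYP3A4 tested as one member of a cytochrome P450 panel screen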
[10] = Luminescence Cell-Based Dose Response HTS to Identify Activators of Luciferase Translation or Activity in H4 […] Cells. [Related pubchem assays: 1829 (Project Summary), 1814 (Primary HTS)]; type: functional
[11] = Luminescence Cell-Based Dose Confirmation HTS to Identify Activators of 5'UTR Stem-Loop Driven Alpha-Synuclein mRNA Translation in H4 Neuroglioblastoma Cells. [Related pubchem assays: 1829 (Project Summary), 1814 (Primary HTS)]; type: functional
[12] = system: H4; experiment: Luminescence Cell-Based Dose Response HTS to Identify Activators of 5'UTR Stem-Loop Driven Prion Protein mRNA Translation in H4 Neuroglioblastoma Cells. [Related pubchem assays: 1829 (Project Summary), 1814 (Primary HTS)]; type: functional; settings: Homo sapiens

Sequence of Cytochrome P450 3A4 (P08684 whole entry): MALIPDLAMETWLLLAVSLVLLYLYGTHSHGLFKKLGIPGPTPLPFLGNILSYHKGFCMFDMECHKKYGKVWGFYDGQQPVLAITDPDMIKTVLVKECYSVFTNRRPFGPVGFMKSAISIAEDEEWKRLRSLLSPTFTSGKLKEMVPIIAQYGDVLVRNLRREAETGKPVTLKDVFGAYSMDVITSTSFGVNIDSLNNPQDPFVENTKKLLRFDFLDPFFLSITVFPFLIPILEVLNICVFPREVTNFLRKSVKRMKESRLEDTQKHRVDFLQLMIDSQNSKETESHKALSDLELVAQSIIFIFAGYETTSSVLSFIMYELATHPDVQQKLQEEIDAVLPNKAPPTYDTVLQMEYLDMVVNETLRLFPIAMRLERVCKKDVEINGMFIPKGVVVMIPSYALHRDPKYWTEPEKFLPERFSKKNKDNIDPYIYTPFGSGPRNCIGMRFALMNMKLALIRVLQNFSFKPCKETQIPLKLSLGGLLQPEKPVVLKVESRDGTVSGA

Structure (SMILES): O=C(O)CCc1ccc(-c2ccc(Br)cc2)n1Cc1ccco1
- EC50 [1]: > 260 µM (inactive)

Structure (SMILES): Cc1ccc2sc(N(CCCN(C)C)C(=O)c3ccc(S(=O)(=O)N4CCCCCC4)cc3)nc2c1C
- AC50 [2]: 3.12 µM (active)
- EC50 [3]: 0.445 µM (active)
- EC50 [4]: 9.3 µM (active)

Structure (SMILES): O=[N+]([O-])c1ccc(C2CCCC/C2=N\OCc2cccc(F)c2)c([N+](=O)[O-])c1 (stereo unspecified)
- EC50 [3]: 0.518 µM (active)
- EC50 [4]: > 60 µM (not active)
- AC50 [5]: 15.8 µM (inconclusive)

Structure (SMILES): O=C(CSc1ncnc2c1nnn2-c1ccc(F)cc1)NCC1CCCO1 (stereo unspecified)
- EC50 [1]: 36.2 µM (active)
- AC50 [6]: 3.14 µM (active)
- EC50 [7]: 3.67 µM (active)

Structure (SMILES): COc1ccc(N=Nc2ccc(CO)cc2)cc1
- EC50 [1]: > 260 µM (inactive)

Structure (SMILES): NC(=O)c1sc2nc(N3CCOCC3)c3c(c2c1N)CCCC3
- CC50 [8]: > 50 µM (active)

Structure (SMILES): COc1ccc2c3c(ccc2c1)N[C@H](C(=O)O)CC3
- AC50 [5]: 0.501 µM (inconclusive)

Structure (SMILES): CC(C)C(=O)NCCc1nc2ccccc2n1CCCOc1ccc(Cl)cc1
- AC50 [5]: 28.2 µM (inconclusive)

Structure (SMILES): CCOC(=O)C(/C=N/c1ccc(C#N)cc1)=C(/O)OCC
- EC50 [1]: > 260 µM (inactive)

Structure (SMILES): O=C(NNc1c(F)c(F)cc(F)c1F)c1ccc(Cl)nc1
- EC50 [1]: > 260 µM (inactive)

Structure (SMILES): Cc1ccc(F)cc1NC(=O)N1CCCN(c2ccc(C(F)(F)F)cn2)CC1
- EC50 [1]: > 260 µM (inactive)

Structure (SMILES): O=C(NC(=S)Nc1ccccc1C(F)(F)F)c1ccccc1F
- EC50 [1]: 143 µM (active)

Structure (SMILES): O=C(CCc1nnc2n(Cc3ccc(F)cc3)c(=O)c3ccccc3n12)N1CCN(c2ccccn2)CC1
- CC50 [8]: 37.4 µM (active)

Structure (SMILES): CSc1nc2n(n1)C(c1cc(Br)ccc1F)C(C(=O)N(C)C)=C(C)N2 (stereo unspecified)
- AC50 [5]: 25.1 µM (inconclusive)
- AC50 [9]: 14.1 µM (inconclusive)

Structure (SMILES): COc1ccc(S(=O)(=O)N2CCN(c3nc(-c4cccnc4)nc4ccccc34)CC2)cc1
- CC50 [8]: 30.4 µM (active)

Structure (SMILES): COc1cc(C(=O)OC2CC3CCC2(C)C3(C)C)ccc1OC(C)=O (stereo unspecified)
- AC50 [2]: 3.75 µM (active)

Structure (SMILES): Cc1cc(C(=O)CN2C(=O)NC3(CCCCC3)C2=O)c(C)n1Cc1ccco1
- EC50 [1]: 44 µM (active)

Structure (SMILES): CCOc1ccc(NC(=O)Nc2ccc(Cc3ccncc3)cc2)cc1
- AC50 [2]: 8.67 µM (active)

Structure (SMILES): CCOc1ncccc1C(=O)N(C)CC1COc2ccccc2O1 (stereo unspecified)
- EC50 [1]: > 260 µM (inactive)

Structure (SMILES): CCOC(=O)c1c(C)n(C)c2ccc(OCC(O)Cn3c(C)nc4ccccc43)cc12 (stereo unspecified)
- CC50 [8]: 19.4 µM (active)

Structure (SMILES): CC1CCc2[nH]c3ccc(C(=O)N(C)CC(=O)Nc4ccccc4Br)cc3c2C1 (stereo unspecified)
- CC50 [8]: 22 µM (active)

Structure (SMILES): COc1ccc(NS(=O)(=O)c2cccc(C(=O)N/N=C(\C)c3ccc(-n4ccnc4)cc3)c2)cc1
- AC50 [2]: > 195 µM (inactive)

Structure (SMILES): Cc1ccc2nc(N(CCCN(C)C)C(=O)c3cc(-c4cccs4)nc4ccccc34)sc2c1
- AC50 [2]: 4.45 µM (active)

Structure (SMILES): CCN1CCN(Cc2ccc(OCc3ccccc3)cc2)CC1
- AC50 [2]: 1.89 µM (active)

Structure (SMILES): CCOc1ccc(OCCC(=O)OCC(=O)N2CCN(S(=O)(=O)c3ccc(Cl)cc3)CC2)cc1
- EC50 [1]: 18.5 µM (active)

Structure (SMILES): O=C(NCCC1=CCCCC1)c1cnccn1
- EC50 [10]: 4.95 µM (active)
- EC50 [11]: 8.37 µM (active)
- EC50 [12]: 11 µM (active)

Structure (SMILES): c1ccc(-c2cc3n(c2)CCc2ccccc2-3)cc1
- EC50 [10]: 15.9 µM (active)
- EC50 [11]: 10.7 µM (active)
- EC50 [12]: 22.7 µM (active)

Structure (SMILES): Cc1nc2cc(NC(=O)N3CCC(c4ccccc4)C3)ccc2n1C (stereo unspecified)
- EC50 [10]: 17.7 µM (active)
- EC50 [11]: 46.9 µM (active)
- EC50 [12]: 27.4 µM (active)

Structure (SMILES): COc1ccc(OCc2cc(C(=O)N(C)Cc3cc(C4CC4)[nH]n3)no2)c(Cl)c1
- EC50 [10]: 69.5 µM (active)
- EC50 [11]: 28.2 µM (active)
- EC50 [12]: 37.8 µM (active)

Structure (SMILES): Cc1cccc(C(=O)NC2CCCCCCC2)c1
- EC50 [10]: 11.9 µM (active)
- EC50 [11]: 29.8 µM (active)
- EC50 [12]: > 120 µM (not active)

Structure (SMILES): Cc1ccccc1C1c2[nH]c3ccccc3c2CCN1C(=O)c1ccc(=O)n(C)n1 (stereo unspecified)
- CC50 [8]: 20.4 µM (active)

Structure (SMILES): CC(=O)N1c2ccc(Cl)cc2C2C=CCC2C1c1cccc2ccccc12 (stereo unspecified)
- AC50 [2]: 2.27 µM (active)

Structure (SMILES): COc1ccc(N2CCN(c3ncnc4c3cnn4-c3ccc(C)cc3C)CC2)cc1
- EC50 [1]: > 260 µM (inactive)

Structure (SMILES): CC(=O)Cn1ncc(N2CCCCC2)c(Cl)c1=O
- EC50 [10]: 11.5 µM (active)
- EC50 [11]: 24.6 µM (active)
- EC50 [12]: 23.5 µM (active)

Structure (SMILES): COc1ccccc1-c1c[nH]nc1-c1ccc(OCc2ccccc2F)cc1O
- AC50 [2]: 4.88 µM (active)

Structure (SMILES): CCN(CC)C(=O)CSc1ncnc2sc(C)c(C)c12
- EC50 [1]: > 260 µM (inactive)

Structure (SMILES): Cc1noc(C)c1COC(=O)c1cc2ccccc2cc1O
- CC50 [8]: 43.1 µM (active)
